Experimental data: patent US10975037B2 (priority 2018, dated 2021)
Read-outs that look alike come from different tables or passages of the source. Marks after values point to notes of the source that are not given here.

Tests used:
[1] = target: human RORγt ligand binding domain (RORγt LBD) (Homo sapiens (Human), UniProt P51449); assay: RORγt ThermoFluor® assay (thermal shift binding)
In short: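 Thermal shift with 0.065 mg/mL RORγt LBD and 60 μM 1,8-ANS in 100 mM Hepes pH 7.0, 10 mM NaCl, 2.5 mM GSH, 0.002% Tween-20.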

full-length human RORγt = full-length human RORγt (Homo sapiens (Human), UniProt P51449); assay: RORγt (full-length human) reporter assay, conditions A or B, HEK293T cells; assay type: cell-based; conditions: for inhibition at 3 µM / inhibition at 6 µM / inhibition at 0.67 µM / inhibition at […] / inhibition at 2 µM: HEK-293T; for inhibition at 3 µM / inhibition at 0.67 µM / inhibition at […] / inhibition at 2 µM: read-out: RORγt (FL) Reporter Assay A or B, % inhibition; for inhibition at 6 µM: read-out: RORγt (FL) Reporter Assay A or B, % inhibition @ 6 μM; for inhibition at 0.67 µM: 0.67 μM compound concentration (footnote ****); for inhibition at 2 µM: 2 μM compound concentration
Chain of full-length human RORγt (P51449 other isoform, or with tags, fused parts or gaps): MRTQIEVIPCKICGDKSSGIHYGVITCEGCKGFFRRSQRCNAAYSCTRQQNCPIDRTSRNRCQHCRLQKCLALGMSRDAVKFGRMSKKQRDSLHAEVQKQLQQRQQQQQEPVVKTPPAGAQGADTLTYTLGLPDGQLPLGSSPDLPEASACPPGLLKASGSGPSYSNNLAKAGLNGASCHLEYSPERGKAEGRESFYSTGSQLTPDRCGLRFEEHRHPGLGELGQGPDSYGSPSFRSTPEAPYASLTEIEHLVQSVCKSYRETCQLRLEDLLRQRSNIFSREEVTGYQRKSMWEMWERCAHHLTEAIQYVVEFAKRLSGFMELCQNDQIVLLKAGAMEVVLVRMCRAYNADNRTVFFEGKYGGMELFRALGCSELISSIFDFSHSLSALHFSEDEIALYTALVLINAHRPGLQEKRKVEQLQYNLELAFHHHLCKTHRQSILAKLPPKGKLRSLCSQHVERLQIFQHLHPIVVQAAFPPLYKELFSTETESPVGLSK
In short: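 After 16–20 h, dual firefly/Renilla luciferase luminescence was read. Firefly signal was normalized to DMSO and saturating reference compound, then to Renilla, and fitted for IC50; % inhibition is versus DMSO.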

[2] = read-out: ThermoFluor® Assay, Kd
[3] = 3 μM compound concentration (footnote *)
[4] = RORγt (FL) Reporter Assay A or B, IC50, HEK293T cells
[5] = HEK293T cells, read-out: RORγt (FL) Reporter Assay A or B, IC50

Chain of human RORγt ligand binding domain (RORγt LBD) (P51449 other isoform, or with tags, fused parts or gaps): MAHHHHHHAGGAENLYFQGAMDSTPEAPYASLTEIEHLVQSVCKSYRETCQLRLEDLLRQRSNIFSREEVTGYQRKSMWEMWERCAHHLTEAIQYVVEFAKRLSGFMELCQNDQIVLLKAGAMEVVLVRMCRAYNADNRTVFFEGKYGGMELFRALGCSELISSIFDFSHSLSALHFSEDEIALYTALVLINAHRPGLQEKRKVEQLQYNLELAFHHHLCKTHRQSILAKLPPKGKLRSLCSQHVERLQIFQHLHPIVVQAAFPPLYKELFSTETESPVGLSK

Structure (SMILES)	Kd [1, 2]	IC50 (full-length human RORγt; [4])	further results
CC(C)(Cc1ccc(-c2c(Cl)c(C(=O)NC[C@]3(O)CC[C@@H](S(C)(=O)=O)CC3)nn2CCCC#N)c(OC(F)F)c1)C(F)(F)F [Example 229, 4-Chloro-1-(3-cyanopropyl)-5-(2-(difluoromethoxy)-4-(3,3,3-trifluoro-2,2-dimethylpropyl)phenyl)-N-(((1s,4s)-1-hydroxy-4-(methylsulfonyl)cyclohexyl)methyl)-1H-pyrazole-3-carboxamide]	3.1 nM	9 nM	inhibition at 3 µM (full-length human RORγt; [3]): 78%
CCn1nc(C(=O)NC[C@]2(O)CC[C@@H](S(C)(=O)=O)CC2)c(Cl)c1-c1ccc(CCC(F)(F)F)cc1OC(F)F [Example 221, 4-Chloro-5-(2-(difluoromethoxy)-4-(3,3,3-trifluoropropyl)phenyl)-1-ethyl-N-(((1s,4s)-1-hydroxy-4-(methylsulfonyl)cyclohexyl)methyl)-1H-pyrazole-3-carboxamide]	2.5 nM	9.3 nM	inhibition at 3 µM (full-length human RORγt; [3]): 90%
CCn1nc(C(=O)NC[C@]2(C(N)=O)CC[C@@H](S(C)(=O)=O)CC2)c(Cl)c1-c1ccc(N[C@H](C)C(F)(F)F)cc1OC [Example 35, N-(((1s,4S)-1-carbamoyl-4-(methylsulfonyl)cyclohexyl)methyl)-4-chloro-1-ethyl-5-(2-methoxy-4-(((R)-1,1,1-trifluoropropan-2-yl)amino)phenyl)-1H-pyrazole-3-carboxamide]	34 nM	730 nM	inhibition at 6 µM (full-length human RORγt; 6 μM compound concentration): 102%
CCn1nc(C(=O)NC[C@@H]2CC[C@@H](S(C)(=O)=O)CO2)c(Cl)c1-c1ccc(CC(C)(C)C(F)(F)F)cc1OC(F)F (single isomer, unassigned) [Example 16, 4-Chloro-5-(2-(difluoromethoxy)-4-(3,3,3-trifluoro-2,2-dimethylpropyl)phenyl)-1-ethyl-N-(((2S*,5R*)-5-(methylsulfonyl)tetrahydro-2H-pyran-2-yl)methyl)-1H-pyrazole-3-carboxamide]		4.8 nM	Kd ([1]; ThermoFluor® Assay, Kd): 0.19 nM; inhibition at 0.67 µM (full-length human RORγt): 105%
CCn1nc(C(=O)NC[C@H]2CC[C@H](S(N)(=O)=O)CC2)c(C)c1-c1ccc(C[C@H](C)C(F)(F)F)cc1OC(F)F (single isomer, unassigned) [Example 59, 5-(2-(difluoromethoxy)-4-((S*)-3,3,3-trifluoro-2-methylpropyl)phenyl)-1-ethyl-4-methyl-N-(((1r,4S)-4-sulfamoylcyclohexyl)methyl)-1H-pyrazole-3-carboxamide]		19 nM	Kd ([1]; ThermoFluor® Assay, Kd): 1.2 nM; inhibition at […] (full-length human RORγt; 0.33 μM compound concentration (footnote *****)): 93%
CCn1nc(C(=O)NC[C@H]2CC[C@H](S(C)(=O)=O)CC2)c(Cl)c1-c1ccc(N[C@H](C)C(F)(F)F)cc1OC(F)(F)F [Example 190, 4-Chloro-1-ethyl-N-(((1r,4R)-4-(methylsulfonyl)cyclohexyl)methyl)-5-(2-(trifluoromethoxy)-4-(((R)-1,1,1-trifluoropropan-2-yl)amino)phenyl)-1H-pyrazole-3-carboxamide]	1.2 nM	21 nM	inhibition at 2 µM (full-length human RORγt): 104%
CCn1nc(C(=O)NC[C@]2(C(=O)O)CC[C@H](S(C)(=O)=O)CC2)c(Cl)c1-c1ccc(CC(C)(C)C(F)(F)F)cc1OC(F)F [Example 121, (1r*,4r*)-1-((4-Chloro-5-(2-(difluoromethoxy)-4-(3,3,3-trifluoro-2,2-dimethylpropyl)phenyl)-1-ethyl-1H-pyrazole-3-carboxamido)methyl)-4-(methylsulfonyl)cyclohexane-1-carboxylic Acid]		830 nM	Kd ([1]; ThermoFluor® Assay, Kd): 43 nM; inhibition at 6 µM (full-length human RORγt; 6 μM compound concentration): 106%
CCn1nc(C(=O)NC[C@H]2CC[C@H](S(C)(=O)=O)CC2)c(C)c1-c1ccc(N[C@H](C)C(F)(F)F)cc1OC [Example 228, 1-Ethyl-5-(2-methoxy-4-(((R)-1,1,1-trifluoropropan-2-yl)amino)phenyl)-4-methyl-N-(((1r,4R)-4-(methylsulfonyl)cyclohexyl)methyl)-1H-pyrazole-3-carboxamide]	12 nM	29 nM	inhibition at 6 µM (full-length human RORγt; 6 μM compound concentration): 99%
CCn1nc(C(=O)NC[C@H]2CC[C@H](S(C)(=O)=O)CO2)c(Cl)c1-c1ccc(CC(C)(C)C(F)(F)F)cc1OC(F)F (single isomer, unassigned) [Example 15, 4-Chloro-5-(2-(difluoromethoxy)-4-(3,3,3-trifluoro-2,2-dimethylpropyl)phenyl)-1-ethyl-N-(((2R*,5S)-5-(methylsulfonyl)tetrahydro-2H-pyran-2-yl)methyl)-1H-pyrazole-3-carboxamide]		5.4 nM	Kd ([1]; ThermoFluor® Assay, Kd): 0.13 nM; inhibition at 0.67 µM (full-length human RORγt): 113%
CCn1nc(C(=O)NC[C@H]2CC[C@H](S(=O)(=O)NC(=O)NC)CC2)c(Cl)c1-c1ccc(CC(C)(C)C(F)(F)F)cc1OC(F)F [Example 71, 4-Chloro-5-(2-(difluoromethoxy)-4-(3,3,3-trifluoro-2,2-dimethylpropyl)phenyl)-1-ethyl-N-(((1r,4r)-4-(N-(methylcarbamoyl)sulfamoyl)cyclohexyl)methyl)-1H-pyrazole-3-carboxamide]	0.23 nM		RORγt (FL) Reporter Assay A or B, % inhibition (full-length human RORγt; [3]): 114* %; IC50 (full-length human RORγt; [5]): 13 nM
CC(C)(O)Cn1nc(C(=O)NC[C@]2(O)CC[C@@H](S(C)(=O)=O)CC2)c(Cl)c1-c1ccc(CC(C)(C)C(F)(F)F)cc1OC(F)F [Example 144, 4-Chloro-5-(2-(difluoromethoxy)-4-(3,3,3-trifluoro-2,2-dimethylpropyl)phenyl)-1-(2-hydroxy-2-methylpropyl)-N-(((1s,4s)-1-hydroxy-4-(methylsulfonyl)cyclohexyl)methyl)-1H-pyrazole-3-carboxamide]	11 nM	31 nM	inhibition at 6 µM (full-length human RORγt; 6 μM compound concentration): 112%
CCn1nc(C(=O)NC[C@]2(O)CC[C@@H](S(C)(=O)=O)CC2)c(Cl)c1-c1ccc(CCC(F)(F)F)cc1OC [Example 39, 4-Chloro-1-ethyl-N-(((1s,4s)-1-hydroxy-4-(methylsulfonyl)cyclohexyl)methyl)-5-(2-methoxy-4-(3,3,3-trifluoropropyl)phenyl)-1H-pyrazole-3-carboxamide]	10 nM	38 nM	inhibition at 6 µM (full-length human RORγt; 6 μM compound concentration): 85%
CCn1nc(C(=O)NC[C@]2(O)CC[C@@H](S(C)(=O)=O)CC2)c(Cl)c1-c1ccc(C(=O)C(C)(C)C(F)(F)F)cc1OC(F)F [Example 105, 4-Chloro-5-(2-(difluoromethoxy)-4-(3,3,3-trifluoro-2,2-dimethylpropanoyl)phenyl)-1-ethyl-N-(((1s,4s)-1-hydroxy-4-(methylsulfonyl)cyclohexyl)methyl)-1H-pyrazole-3-carboxamide]	3.3 nM	13 nM	inhibition at 3 µM (full-length human RORγt): 28%
CCn1nc(C(=O)NC[C@H]2CC[C@H](S(=O)(=O)NC(C)=O)CC2)c(Cl)c1-c1ccc(CC(C)(C)C(F)(F)F)cc1OC(F)F [Example 68, N-(((1r,4r)-4-(N-Acetylsulfamoyl)cyclohexyl)methyl)-4-chloro-5-(2-(difluoromethoxy)-4-(3,3,3-trifluoro-2,2-dimethylpropyl)phenyl)-1-ethyl-1H-pyrazole-3-carboxamide]	0.7 nM		RORγt (FL) Reporter Assay A or B, % inhibition (full-length human RORγt; [3]): 97* %; IC50 (full-length human RORγt; [5]): 39 nM
CCn1nc(C(=O)NC[C@H]2CC[C@H](S(C)(=O)=O)CC2)c(Cl)c1-c1ccc(N[C@H](C)C(F)(F)F)cc1 [Example 194, 4-Chloro-1-ethyl-N-(((1r,4R)-4-(methylsulfonyl)cyclohexyl)methyl)-5-(4-(((R)-1,1,1-trifluoropropan-2-yl)amino)phenyl)-1H-pyrazole-3-carboxamide]	29 nM	120 nM	inhibition at 2 µM (full-length human RORγt): 93%
CCn1nc(C(=O)NC[C@H]2CC[C@H](S(C)(=O)=O)CC2)c(Cl)c1-c1ccc(CCCC(F)(F)F)cc1OC(F)F [Example 76, 4-Chloro-5-(2-(difluoromethoxy)-4-(4,4,4-trifluorobutyl)phenyl)-1-ethyl-N-(((1r,4r)-4-(methylsulfonyl)cyclohexyl)methyl)-1H-pyrazole-3-carboxamide]	0.28 nM	2.1 nM	inhibition at […] (full-length human RORγt; 0.22 μM compound concentration (footnote *******)): 103%
CCn1nc(C(=O)NC[C@]2(O)CC[C@@H](S(C)(=O)=O)CC2)c(Cl)c1-c1ccc(CC(C)(C)C(F)(F)F)cc1C#N [Example 88, 4-Chloro-5-(2-cyano-4-(3,3,3-trifluoro-2,2-dimethylpropyl)phenyl)-1-ethyl-N-(((1s,4s)-1-hydroxy-4-(methylsulfonyl)cyclohexyl)methyl)-1H-pyrazole-3-carboxamide]	15 nM	130 nM	inhibition at 3 µM (full-length human RORγt): 88%
CCn1nc(C(=O)NC[C@H]2CC[C@H](S(C)(=O)=O)CC2)c(C#N)c1-c1ccc(CCC(F)(F)F)cc1OC [Example 125, 4-Cyano-1-ethyl-5-(2-methoxy-4-(3,3,3-trifluoropropyl)phenyl)-N-(((1r,4r)-4-(methylsulfonyl)cyclohexyl)methyl)-1H-pyrazole-3-carboxamide]	44 nM	230 nM	inhibition at 6 µM (full-length human RORγt): 85%
